Read-outs that look alike come from different tables or passages of the source.
How the values were obtained:
taming = assay: Rhesus Monkey Taming Effects; type: in vivo; settings: po; for minimal effective dose: Macaca mulatta, read-out: Taming (monkey) MED
Procedure: (§1) Results given in: mg/kg po/monkey
Rhesus Monkey Taming Effects: Compounds are administered orally to groups of six rhesus monkeys. The behavior of the animals is then evaluated by observational means. Taming effects are determined by the ability of the observer to approach and touch the monkey. Compounds with major tranquilizer activity in man can produce a state of passive tameness in the rhesus monkey wherein it can be touched without provoking any of the threatening or aggressive behavior seen in the normal animal. The MED is the minimal oral dose at which some taming effect can be observed.

[1] = tested on: amphetamine hyperactivity; assay: Mouse Anti-Amphetamine Activity (A.A.); type: in vivo; settings: po, read-out: A.A. (mouse) ED50
Procedure: (§2) Results given in: mg/kg po/mouse
Mouse Anti-Amphetamine Activity: Groups of 5 mice are given d-amphetamine sulfate 5 mg/kg sc 1 hour after oral administration of graded doses of test compound. The mice are placed in photocell activity units immediately after amphetamine administration and locomotor activity is recorded for 60 minutes. The ED50 is calculated as the dose causing a 50% reduction in locomotor activity relative to the activity of the amphetamine-treated control mice. Amphetamine antagonism at non-toxic doses appears to correlate with major tranquilizer activity in man.

approach-behavior = assay: Rhesus Monkey Approach Effects; type: in vivo; settings: po; for minimal effective dose: Macaca mulatta, read-out: Approach (monkey) MED
Procedure: as §1
Rhesus Monkey Approach Effects: Compounds are administered orally to groups of six rhesus monkeys. The behavior of the animals is then evaluated by observational means. […] The MED is the oral dose at which the animals show signs of decreased fear.

locomotor activity = assay: Mouse Screen (decrease in locomotor activity); type: in vivo; settings: Mus musculus, po, read-out: Screen (mouse) MED
Text: as §2
Mouse Screen: The minimal effective dose (MED) is the lowest oral dose producing an obvious decrease in locomotor activity, using observational techniques. Groups of 3 mice are given decreasing oral doses at 0.5 log intervals (300, 100, 30 . . . etc.) until no behavioral effects are evident. Decrease of locomotor activity is indicative of general central nervous system depressant activity.

[2] = tested on: Conditioned Avoidance Response; assay: Mouse Conditioned Avoidance Response (C.A.R.); type: in vivo; settings: po, read-out: C.A.R. (mouse) ED50
Procedure: (§3) Results given in: mg/kg po/mouse mg/kg po/rat
(§4) Mouse and Rat Conditioned Avoidance Response: Mice and rats are trained to jump out of a pit onto a ledge to avoid shock when presented with a light and sound conditioned stimulus. The animals are tested 1, 2, and 4 hours after administration of the test compound. Three to 4 dose levels and groups of 4-8 animals/dose are used. The ED50 is the dose producing a block of the C.A.R. in 50% of the animals. Blocking of the C.A.R. at non-toxic doses appears to correlate with major tranquilizer activity in man.

[3] = tested on: Conditioned Avoidance Response; assay: Rat Conditioned Avoidance Response (C.A.R.); type: in vivo; settings: po, read-out: C.A.R. (rat) ED50
Procedure: as §3, §4

[4] = tested on: Conditioned Avoidance Response; assay: Dog Conditioned Avoidance Response (C.A.R.); type: in vivo; settings: po; for ED50: Canis lupus familiaris, read-out: C.A.R. (dog) ED50
Procedure: Results given in: mg/kg po/dog
Dog Conditioned Avoidance Response: Dogs are trained to raise a forelimb when presented with a conditioned stimulus (light) in order to avoid an electric shock. Blocks of 10 trials are given to groups of four dogs during a pretreatment period and at 1, 2, and 4 hours after oral administration of test compound. The ED50 values are calculated as the dose causing 50% of the animals to show five or more incorrect responses. Blocking of the C.A.R. at non-toxic doses appears to correlate with major tranquilizer activity in man.

[5] = tested on: approach-avoidance ("conflict") situation; assay: Rat Conflict (Approach-Avoidance) Test; type: in vivo; settings: for minimal effective dose: read-out: Conflict (rat) MED
Procedure: Results given in: mg/kg po/rat
Rat Conflict (Approach-Avoidance) Test: Food deprived rats are trained to pass from one compartment to an adjacent one to obtain food. The training consists of three exposures to the test situation on day one of the experiment. The rats are given limited (1-2 hr) free access to food in their home cages on day one and are then food deprived for at least 18 hours. On day two of the experiment, the rats are given a control exposure to the test situation followed by a second exposure after 1/2 to 1 hour in which they are shocked after crossing and eating. Groups of 6-8 rats are then dosed orally with solvent or test compound and then reexposed to the test situation after 1 or 2 hours.
This effect is dose-related (and the MED is the minimum dose at which this effect is obtained); rats dosed with solvent only consistently show a high level of fear as evidenced by decreased mobility and absence of feeding when placed in the test situation after receiving a shock.

Water solubility = type: physicochemical; settings: methanesulfonate salt

## CN(C)CCCN1c2ccccc2Sc2ccc(Cl)cc21 [chlorpromazine, reference compound]
taming
  minimal effective dose: 10 to 30 mg/kg
[1]; Mus musculus, 1 h
  ED50: 5 mg/kg
approach-behavior; rhesus monkey
  Approach (monkey) MED, symbol: I
Locomotor activity
  minimal effective dose: 3 to 10 mg/kg
[2]; Mus musculus, 4 h
  ED50: 5 mg/kg
[3]; Rattus norvegicus, 4 h
  ED50: 10 mg/kg
[4]; 4 h
  ED50: 6 mg/kg
[5]; po, rat
  Conflict (rat) MED, symbol: I

## c1ccc2c(c1)CCc1cccc3c4c(n-2c13)CCN(CC1CC1)C4 [No. 3, 3-(cyclopropylmethyl)-1,2,3,4,8,9-hexahydropyrido[4',3':2,3]indolo[1,7-ab][1]benzazepine]
taming; rhesus monkey
  minimal effective dose: 3 to 10 mg/kg
[1]; mouse, d-amphetamine sulfate 5 mg/kg sc 1 hour after compound, 60 minutes recording
  ED50: 6 mg/kg
approach-behavior; rhesus monkey
  minimal effective dose: 1 to 3 mg/kg
Locomotor activity
  minimal effective dose: 30 to 100 mg/kg
[2]; mouse, tested 1, 2, and 4 hours after administration
  ED50: 20 mg/kg
[3]; rat, tested 1, 2, and 4 hours after administration
  ED50: 40 mg/kg
[4]; dog, 1, 2, and 4 hours after administration
  ED50: > 20 mg/kg
[5]; po, rat, reexposed after 1 or 2 hours
  minimal effective dose: 10 to 20 mg/kg

## CN1C(=O)CN=C(c2ccccc2)c2cc(Cl)ccc21 [diazepam, reference compound]
taming; rhesus monkey
  Taming (monkey) MED, symbol: I
approach-behavior
  minimal effective dose: 3 to 10 mg/kg
Locomotor activity
  minimal effective dose: 3 to 10 mg/kg
[4]; dog
  C.A.R. (dog) ED50, symbol: I
[5]; Rattus norvegicus, po
  minimal effective dose: 3 to 10 mg/kg
[5]; rats cross to obtain food despite earlier shock, dose-related
  decreased fear in the test animals, in words: apparent decreased fear in the test animals

## CS(=O)(=O)O.c1ccc2c(c1)CCc1cccc3c4c(n-2c13)CCN(CC1CC1)C4 [3-(cyclopropylmethyl)-1,2,3,4,8,9-hexahydropyrido[4',3':2,3]indolo[1,7-ab][1]benzazepine methanesulfonate]
Water solubility
  solubility: > 500 mg/mL
